According to article PMC6556873, “Rapid Covalent-Probe Discovery by Electrophile-Fragment Screening” (Journal of the American Chemical Society, 2019):
Like-named read-outs stand apart in the source and are kept apart here.

How the values were obtained:
[1] = biological target: T1, BSA (Bos taurus, UniProt P02769); set-up: Intact protein LC/MS covalent labelling, fragments in pools of five, 200 uM each, 4 °C; details: 24 h, 4 °C, pool of five; 200 µM; covalent
T1 construct: gene ALB

[2] = biological target: T2, NNMT (hNNMT) (Homo sapiens, UniProt P40261); set-up: Intact protein LC/MS covalent labelling, fragments in pools of five, 200 uM each, 4 °C; details: 24 h, 4 °C, pool of five; 200 µM; covalent
T2 construct: wild type, N-terminal His6 tag kept (no cleavage described), E. coli, construct 31248 Da
T2 sequence (P40261 1-264): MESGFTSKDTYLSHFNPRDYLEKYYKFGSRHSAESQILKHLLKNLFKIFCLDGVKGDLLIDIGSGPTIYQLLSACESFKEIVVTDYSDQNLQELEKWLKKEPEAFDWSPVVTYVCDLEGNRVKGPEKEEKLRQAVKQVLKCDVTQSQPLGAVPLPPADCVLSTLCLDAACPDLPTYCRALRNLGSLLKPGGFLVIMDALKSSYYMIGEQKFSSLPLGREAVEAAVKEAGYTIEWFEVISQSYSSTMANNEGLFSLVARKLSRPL

[3] = biological target: T3, PCAF (Homo sapiens, UniProt Q92831); set-up: Intact protein LC/MS covalent labelling, fragments in pools of five, 200 uM each, 4 °C; details: 24 h, 4 °C, pool of five; 200 µM; covalent
T3 construct: gene KAT2B

[4] = biological target: T4, NUDT7 (Homo sapiens, UniProt P0C024); set-up: Intact protein LC/MS covalent labelling, fragments in pools of five, 200 uM each, 4 °C; details: 24 h, 4 °C, pool of five; 200 µM; covalent
T4 construct: residues 14-235, E. coli, pNIC28-Bsa4, N-terminal His6 tag removed by TEV, construct 26672 Da

[5] = biological target: T5, OTUB2 (OTUB2A) (Homo sapiens, UniProt Q96DC9); set-up: Intact protein LC/MS covalent labelling, fragments in pools of five, 200 uM each, 4 °C; details: 24 h, 4 °C, pool of five; 200 µM; covalent
T5 construct: full length residues 1-234, E. coli BL21(DE3)-R3, His tag removed by TEV, construct 27312 Da
T5 sequence (Q96DC9 1-234): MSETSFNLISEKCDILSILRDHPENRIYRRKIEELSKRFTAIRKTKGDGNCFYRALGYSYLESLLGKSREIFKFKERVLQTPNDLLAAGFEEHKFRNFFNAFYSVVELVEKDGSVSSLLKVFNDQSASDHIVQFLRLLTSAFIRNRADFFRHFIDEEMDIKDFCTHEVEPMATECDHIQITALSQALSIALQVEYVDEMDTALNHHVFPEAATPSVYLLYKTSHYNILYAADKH

[6] = in vitro; set-up: species or system CCD841, HEK293; details: human, hb2 cells, read-out: HB-2 Cells Viability (%)
[7] = in vitro; set-up: species or system HB2, HEK293; details: human, ccd841 cells
[8] = in vitro; set-up: species or system HB2, CCD841; details: human, hek293 cells

T4 sequence (P0C024 14-235): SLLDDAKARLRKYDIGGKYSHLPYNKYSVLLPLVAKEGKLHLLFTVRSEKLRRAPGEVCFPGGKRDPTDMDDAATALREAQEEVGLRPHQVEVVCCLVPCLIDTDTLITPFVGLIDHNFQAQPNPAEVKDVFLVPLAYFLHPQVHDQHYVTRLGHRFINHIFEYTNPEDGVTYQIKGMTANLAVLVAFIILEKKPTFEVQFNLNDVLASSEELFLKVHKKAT
T3 sequence (Q92831 whole entry, the tested form may be a part): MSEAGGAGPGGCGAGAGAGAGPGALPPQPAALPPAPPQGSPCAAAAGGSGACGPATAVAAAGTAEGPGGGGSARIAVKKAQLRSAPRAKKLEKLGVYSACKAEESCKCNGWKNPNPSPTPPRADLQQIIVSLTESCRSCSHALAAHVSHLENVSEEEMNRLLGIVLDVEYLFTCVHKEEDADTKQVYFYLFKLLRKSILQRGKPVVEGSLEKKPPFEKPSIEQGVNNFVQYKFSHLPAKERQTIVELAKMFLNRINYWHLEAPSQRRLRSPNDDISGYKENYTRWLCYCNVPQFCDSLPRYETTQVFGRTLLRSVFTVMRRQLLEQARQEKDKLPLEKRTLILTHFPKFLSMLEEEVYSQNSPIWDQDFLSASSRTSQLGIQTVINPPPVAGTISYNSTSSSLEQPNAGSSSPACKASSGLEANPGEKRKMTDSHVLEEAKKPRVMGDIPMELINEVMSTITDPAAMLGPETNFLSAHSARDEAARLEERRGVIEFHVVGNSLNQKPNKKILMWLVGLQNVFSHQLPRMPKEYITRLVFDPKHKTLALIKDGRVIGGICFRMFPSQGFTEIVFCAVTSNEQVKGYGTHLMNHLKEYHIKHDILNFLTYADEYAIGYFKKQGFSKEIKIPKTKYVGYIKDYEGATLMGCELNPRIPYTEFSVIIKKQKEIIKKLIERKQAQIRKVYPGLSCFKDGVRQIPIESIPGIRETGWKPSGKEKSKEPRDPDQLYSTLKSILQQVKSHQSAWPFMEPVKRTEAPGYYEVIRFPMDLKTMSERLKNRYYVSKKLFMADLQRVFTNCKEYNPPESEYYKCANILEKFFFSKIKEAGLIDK
T1 sequence (P02769 whole entry, the tested form may be a part): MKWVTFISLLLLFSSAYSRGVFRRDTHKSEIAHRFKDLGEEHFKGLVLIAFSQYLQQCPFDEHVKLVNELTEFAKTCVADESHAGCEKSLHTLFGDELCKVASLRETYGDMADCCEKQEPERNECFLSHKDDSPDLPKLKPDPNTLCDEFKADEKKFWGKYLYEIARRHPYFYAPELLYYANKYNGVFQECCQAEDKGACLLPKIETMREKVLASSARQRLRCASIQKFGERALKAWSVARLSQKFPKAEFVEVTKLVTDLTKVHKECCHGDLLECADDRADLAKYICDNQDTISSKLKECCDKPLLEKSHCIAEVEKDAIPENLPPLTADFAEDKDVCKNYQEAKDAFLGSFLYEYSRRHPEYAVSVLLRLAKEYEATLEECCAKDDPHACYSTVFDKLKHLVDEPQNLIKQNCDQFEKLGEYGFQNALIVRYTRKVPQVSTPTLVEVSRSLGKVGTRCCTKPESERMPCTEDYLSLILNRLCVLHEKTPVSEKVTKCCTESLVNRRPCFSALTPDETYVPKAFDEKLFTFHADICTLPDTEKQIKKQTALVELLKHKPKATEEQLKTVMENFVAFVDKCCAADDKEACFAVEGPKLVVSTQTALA

Row | SMILES | BSA [1] | NNMT [2] | PCAF [3] | NUDT7 [4] | OTUB2 [5] | viability at 48 h, 10 µM [6] [%] | viability at 48 h, 10 µM [7] [%] | viability at 48 h, 10 µM [8] [%]
1 | O=C(CCl)Nc1cc([N+](=O)[O-])ccc1Cl [PCM-0102366] | 0 | 0.51 | 0 | 0.2 | 0.27 | 1.3 | 4.3 | 2.6
2 | CC(NC(=O)CCl)c1ccc2c(c1)CC(=O)N2 (stereo not shown) [PCM-0102816] | 0 | 0 | 0 | 0.22 | 0.29 | 94.8 | 86 | 74.8
3 | C=CC(=O)N1CC(C)(C)C1c1cccs1 (stereo not shown) [PCM-0102611] | 0 | 0 | 0 | 0 | 0 | 107 | 95.8 | 71.3
4 | O=C(CCl)Nc1nnc(-c2ccccc2)o1 [PCM-0102458] | 0 | 0.14 | 0 | 0 | 0.08 | 97.2 | 98 | 104
5 | O=C(CCl)Nc1ccc(C(=O)O)cc1 [PCM-0102400] | 0 | 0 | 0 | 0 | 0 | 84.1 | 72.5 | 112
6 | O=C(CCl)NC1CCOc2ccccc21 (stereo not shown) [PCM-0102871] | 0 | 0 | 0 | 0 | 0.44 | 92.9 | 87.1 | 69.5
7 | Cl.O=C(CCl)N1CCN(Cc2ccc(Cl)s2)CC1 [PCM-0102277] | 0.11 | 0.26 | 0 | 0 | 0.09 | 8.6 | 37.3 | 18.2
8 | C#Cc1cccc(NC(=O)NC(=O)CCl)c1 [PCM-0102813] | 0 | 0 | 0 | 0.13 | 0.14 | 74.1 | 82.2 | 73.2
9 | COc1ccc(Cl)cc1NC(=O)CCl [PCM-0102370] | 0 | 0 | 0 | 0.23 | 0.18 | 3.7 | 34.6 | 3.3
10 | C=CC(=O)N(C)Cc1c(C)nc2sc(C)cn12 [PCM-0102679] | 0 | 0.32 | 0 | 0.06 | 0 | 103 | 108 | 83.2
11 | O=C(CCl)Nc1ccc2c(c1)CCC2 [PCM-0102662] | 0 | 0.22 | 0 | 0.12 | 0.14 | 16.3 | 56.2 | 4.7
12 | Cc1cc(NC(=O)CCl)n(-c2ccccc2F)n1 [PCM-0103066] | 0 | 0 | 0 | 0 | 0.44 | 64 | 65.3 | 36
13 | O=C(CCl)Nc1ccccc1C(F)(F)F [PCM-0102170] | 0 | 0.12 | 0 | 0 | 0 | 96.7 | 99.1 | 72.6
14 | COc1cccc2sc(NC(=O)CCl)nc12.Cl [PCM-0103067] | 0 | 1 | 0 | 1 | 0.16 | 32.2 | 48.9 | 47.6
